Reference: PMC11318023, “Discovery of VU6008677: A Structurally Distinct Tricyclic M4 Positive Allosteric Modulator with Improved CYP450 Profile” (ACS Medicinal Chemistry Letters, 2024)
Read-outs that look alike come from different tables or passages of the source.

Key:
[1] = Binding in brain homogenate from rat, equilibrium dialysis; format: in vitro ADME; details: rat, brain homogenate, rat brain homogenates, read-out: rat fu,brain
human M4 (hM4) = molecular target: T1, human M4 (hM4) (Homo sapiens, UniProt P08173); test: Calcium mobilization assay, hM4/Gqi5-CHO cells, with EC20 acetylcholine (PAM); details: hM4/Gqi5-CHO cells, calcium mobilization; for hM4 pEC50 / hM4 %ACh Max: EC20 acetylcholine; for hM4 %ACh Max: maximum response; for EC50: read-out: hM4 EC50, EC20 fixed concentration of acetylcholine
T1 sequence (P08173 1-479): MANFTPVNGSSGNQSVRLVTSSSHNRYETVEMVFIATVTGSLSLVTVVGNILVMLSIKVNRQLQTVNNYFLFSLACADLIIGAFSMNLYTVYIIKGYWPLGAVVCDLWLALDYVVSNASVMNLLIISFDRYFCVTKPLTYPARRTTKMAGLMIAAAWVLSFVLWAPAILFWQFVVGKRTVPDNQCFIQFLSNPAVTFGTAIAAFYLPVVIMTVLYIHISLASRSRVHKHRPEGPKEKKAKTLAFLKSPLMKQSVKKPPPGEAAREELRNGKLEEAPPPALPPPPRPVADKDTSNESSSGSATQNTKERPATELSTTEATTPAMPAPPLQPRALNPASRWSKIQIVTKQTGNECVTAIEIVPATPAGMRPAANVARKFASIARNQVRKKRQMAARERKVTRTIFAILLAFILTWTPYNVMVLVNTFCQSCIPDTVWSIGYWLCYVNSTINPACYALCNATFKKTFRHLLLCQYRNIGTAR

[2] = Intrinsic clearance in human liver microsomes (substrate depletion), predicted hepatic clearance; format: in vitro ADME; details: for CLint scaled at 1 µM: pH 7.4, human liver microsomes; for CLhep, human (predicted hepatic clearance): predicted from human microsomal CLint
CYP 2D6 [3] = molecular target: T2, CYP 2D6 (Homo sapiens, UniProt P10635); test: CYP450 inhibition in pooled human liver microsomes, CYP-specific probe substrates; format: in vitro ADME; details: pooled HLM, NADPH, CYP-specific probe substrate
[4] = Intrinsic clearance in rat liver microsomes (substrate depletion), predicted hepatic clearance; format: in vitro ADME; details: for CLint scaled at 1 µM: pH 7.4, rat liver microsomes; for CLhep, rat (predicted hepatic clearance): predicted from rat microsomal CLint
CYP 1A2 [5] = molecular target: T3, CYP 1A2 (Homo sapiens, UniProt P05177); test: CYP450 inhibition in pooled human liver microsomes, CYP-specific probe substrates; format: in vitro ADME; details: pooled HLM, NADPH, CYP-specific probe substrate
T3 sequence (P05177 1-516): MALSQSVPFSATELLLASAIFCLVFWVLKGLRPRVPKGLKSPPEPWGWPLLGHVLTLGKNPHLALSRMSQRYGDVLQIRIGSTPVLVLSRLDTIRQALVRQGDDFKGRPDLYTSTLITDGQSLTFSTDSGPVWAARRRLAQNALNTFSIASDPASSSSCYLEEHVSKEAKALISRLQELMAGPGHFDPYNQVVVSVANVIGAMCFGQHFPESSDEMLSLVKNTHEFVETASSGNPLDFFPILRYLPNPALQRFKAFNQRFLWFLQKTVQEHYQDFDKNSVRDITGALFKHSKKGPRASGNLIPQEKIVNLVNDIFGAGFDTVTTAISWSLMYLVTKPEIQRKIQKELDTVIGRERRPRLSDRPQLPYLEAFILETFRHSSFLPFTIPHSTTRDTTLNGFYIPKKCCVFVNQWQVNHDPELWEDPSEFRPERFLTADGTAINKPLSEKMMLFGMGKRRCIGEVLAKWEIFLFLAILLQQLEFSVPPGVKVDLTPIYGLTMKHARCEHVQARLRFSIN

[6] = Binding in plasma from rat, equilibrium dialysis; format: in vitro ADME; details: read-out: rat fu,plasma
human M2 (hM2) = molecular target: T4, human M2 (hM2) (Homo sapiens, UniProt P08172); test: Calcium mobilization assay, hM2/Gqi5-CHO cells, with EC20 acetylcholine; format: cell-based
T4 construct: expressed in transfected cells
T4 sequence (P08172 1-466): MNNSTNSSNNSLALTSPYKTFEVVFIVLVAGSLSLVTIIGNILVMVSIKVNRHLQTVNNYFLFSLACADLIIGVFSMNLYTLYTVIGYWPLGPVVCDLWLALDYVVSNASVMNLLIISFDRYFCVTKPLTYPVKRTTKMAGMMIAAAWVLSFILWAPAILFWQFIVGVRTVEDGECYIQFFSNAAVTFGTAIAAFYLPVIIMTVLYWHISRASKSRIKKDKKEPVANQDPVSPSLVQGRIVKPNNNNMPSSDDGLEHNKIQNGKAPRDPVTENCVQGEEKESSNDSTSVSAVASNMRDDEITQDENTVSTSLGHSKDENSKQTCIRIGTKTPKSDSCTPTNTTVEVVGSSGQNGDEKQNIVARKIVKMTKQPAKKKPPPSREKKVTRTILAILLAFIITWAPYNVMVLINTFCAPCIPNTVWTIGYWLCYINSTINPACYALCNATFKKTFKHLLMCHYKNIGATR
Text: buffer remained in the cell plates. […] After establishment of a […]

CYP 3A4 = CYP 3A4 (Homo sapiens, UniProt P08684); test: CYP450 inhibition in pooled human liver microsomes, CYP-specific probe substrates; format: in vitro ADME; details: pooled HLM, NADPH, CYP-specific probe substrate
CYP 2C9 [7] = molecular target: T5, CYP 2C9 (Homo sapiens, UniProt P11712); test: as above; format: in vitro ADME; details: pooled HLM, NADPH, CYP-specific probe substrate
[8] = Binding in plasma from human, equilibrium dialysis; format: in vitro ADME; details: human, plasma, read-out: human fu,plasma
CYP 2C9 [9] = molecular target: T5, CYP 2C9; parameters: method as in PMID 23177787; details: Figure 1; read-out: Cyp P450 Inhibition (2C9); cited from earlier work
CYP 2D6 [10] = molecular target: T2, CYP 2D6; parameters: method as in PMID 23177787; details: Figure 1; read-out: Cyp P450 Inhibition (2D6); cited from earlier work
CYP 1A2 [11] = molecular target: T3, CYP 1A2; parameters: method as in PMID 23177787; details: Figure 1; read-out: Cyp P450 Inhibition (1A2); cited from earlier work
[12] = parameters: method as in PMID 18772318, PMID 24442096, PMID 34710625; details: rat; Figure 1, earlier M4 PAMs; cited from earlier work
[13] = parameters: method as in PMID 18772318, PMID 24442096, PMID 34710625; details: rat brain; Figure 1, earlier M4 PAMs; cited from earlier work
[14] = parameters: method as in PMID 18772318, PMID 24442096, PMID 34710625; details: Figure 1, earlier M4 PAMs; cited from earlier work
[15] = parameters: method as in PMID 18772318, PMID 24442096, PMID 34710625; details: human; Figure 1, earlier M4 PAMs; cited from earlier work

T5 sequence (P11712 whole entry): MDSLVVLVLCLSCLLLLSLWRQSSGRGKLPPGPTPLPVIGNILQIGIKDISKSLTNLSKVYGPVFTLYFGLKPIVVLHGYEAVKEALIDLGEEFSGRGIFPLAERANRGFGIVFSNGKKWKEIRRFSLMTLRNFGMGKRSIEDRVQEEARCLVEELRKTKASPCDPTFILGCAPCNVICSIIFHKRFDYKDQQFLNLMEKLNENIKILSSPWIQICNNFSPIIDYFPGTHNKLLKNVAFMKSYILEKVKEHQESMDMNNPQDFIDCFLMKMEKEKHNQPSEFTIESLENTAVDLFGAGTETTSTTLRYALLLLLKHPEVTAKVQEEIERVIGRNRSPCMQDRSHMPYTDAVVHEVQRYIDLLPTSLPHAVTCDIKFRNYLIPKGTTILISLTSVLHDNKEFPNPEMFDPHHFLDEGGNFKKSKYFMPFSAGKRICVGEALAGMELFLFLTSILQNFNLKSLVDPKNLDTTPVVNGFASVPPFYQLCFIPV
T2 sequence (P10635 whole entry): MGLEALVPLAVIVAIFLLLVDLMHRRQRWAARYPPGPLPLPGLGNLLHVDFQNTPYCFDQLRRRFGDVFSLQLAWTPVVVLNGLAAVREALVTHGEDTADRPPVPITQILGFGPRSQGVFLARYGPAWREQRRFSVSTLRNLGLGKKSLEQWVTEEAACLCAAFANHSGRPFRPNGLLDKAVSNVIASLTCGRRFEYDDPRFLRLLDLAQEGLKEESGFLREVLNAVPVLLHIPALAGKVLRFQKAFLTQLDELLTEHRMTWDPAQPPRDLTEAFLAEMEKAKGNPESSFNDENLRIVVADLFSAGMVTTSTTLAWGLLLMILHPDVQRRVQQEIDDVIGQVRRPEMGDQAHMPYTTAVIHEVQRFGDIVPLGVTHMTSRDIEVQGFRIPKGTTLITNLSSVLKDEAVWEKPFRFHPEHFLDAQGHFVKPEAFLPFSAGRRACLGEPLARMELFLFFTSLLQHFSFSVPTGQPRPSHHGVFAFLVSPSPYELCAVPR
CYP 3A4, sequence (P08684 whole entry): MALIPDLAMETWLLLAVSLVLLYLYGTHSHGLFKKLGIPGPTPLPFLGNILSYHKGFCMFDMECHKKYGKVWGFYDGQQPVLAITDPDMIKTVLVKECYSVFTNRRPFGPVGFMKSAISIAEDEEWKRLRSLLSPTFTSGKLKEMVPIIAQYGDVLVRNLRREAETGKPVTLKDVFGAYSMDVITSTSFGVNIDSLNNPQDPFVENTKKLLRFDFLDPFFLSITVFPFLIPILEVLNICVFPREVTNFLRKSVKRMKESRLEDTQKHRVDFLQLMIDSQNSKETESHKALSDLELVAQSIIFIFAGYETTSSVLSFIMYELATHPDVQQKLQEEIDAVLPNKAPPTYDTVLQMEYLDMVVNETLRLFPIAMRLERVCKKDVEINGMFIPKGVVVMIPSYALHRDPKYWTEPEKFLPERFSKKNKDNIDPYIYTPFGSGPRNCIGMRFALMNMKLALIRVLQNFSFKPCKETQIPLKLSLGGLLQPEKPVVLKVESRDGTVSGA

With `Cc1c(Cl)cnc2sc3c(NC4CC4)ncnc3c12` [Compound 15g] the fraction unbound at 6 h, 1 µM [1] was 0.003, the “hM4 pEC50” value (human M4 (hM4)) was 7.60 and the “hM4 %ACh Max” value (human M4 (hM4)) was 110%. For the same compound, the EC50 (human M4 (hM4)) was 25 nM, the CLint scaled at 1 µM [2] was 57 mL/min/kg and the “CLhep, human (predicted hepatic clearance)” value [2] was 15 mL/min/kg. The IC50 (CYP 2D6 [3]) was > 30000 nM, the CLint scaled at 1 µM [4] was 789 mL/min/kg and the “CLhep, rat (predicted hepatic clearance)” value [4] was 64 mL/min/kg. The IC50 (CYP 1A2 [5]) was < 100 nM, the fraction unbound at 6 h, 5 µM [6] was 0.039 and the EC50 (human M2 (hM2)) was 480 nM. The “hM2 % ACh Max” value (human M2 (hM2)) was 40%, the IC50 (CYP 3A4) was 24300 nM and the IC50 (CYP 2C9 [7]) was > 30000 nM. It also gave a fraction unbound at 6 h, 5 µM [8] of 0.01.

In the case of `Cc1nc2sc3c(NC4CC4)nncc3c2c(C)c1Cl.Cl` [Compound 22i], the fraction unbound at 6 h, 1 µM [1] is reported as 0.011, the “hM4 pEC50” value (human M4 (hM4)) is reported as 7.19 and the “hM4 %ACh Max” value (human M4 (hM4)) is reported as 88%. For the same compound, the EC50 (human M4 (hM4)) was 65 nM, the CLint scaled at 1 µM [2] was 52 mL/min/kg and the “CLhep, human (predicted hepatic clearance)” value [2] was 15 mL/min/kg. The IC50 (CYP 2D6 [3]) was 7900 nM, the CLint scaled at 1 µM [4] was 420 mL/min/kg and the “CLhep, rat (predicted hepatic clearance)” value [4] was 60 mL/min/kg. The IC50 (CYP 1A2 [5]) was < 100 nM, the fraction unbound at 6 h, 5 µM [6] was 0.042 and the “hM2 EC50” value (human M2 (hM2)) was “inactive”. For the same compound, the IC50 (CYP 3A4) was 28800 nM, the IC50 (CYP 2C9 [7]) was 19200 nM and the fraction unbound at 6 h, 5 µM [8] was 0.013.

For `Cc1nc2sc(C(=O)NCc3ccncc3)c(N)c2c(C)c1Cl` [ML253], the IC50 (CYP 2C9 [9]) is given as < 100 nM, the IC50 (CYP 2D6 [10]) is given as 700 nM and the IC50 (CYP 1A2 [11]) is given as 120 nM.

In the case of `COc1ccc(CNC(=O)c2sc3nc(C)cc(C)c3c2N)cc1` [VU0152100], the “fu,plasma (r)” value [12] is given as 0.011, the “fu,b (r)” value [13] is given as 0.045 and the “rat CLhep” value [14] is given as 65 mL/min/kg.

In the case of `Cc1cc(C)c2c(n1)sc1c(N3CC4(COC4)C3)ncnc12` [VU6007215], the “fu,plasma (r)” value [12] is listed as 0.206, the “fu,b (r)” value [13] is listed as 0.019 and the “rat CLhep” value [14] is listed as 63 mL/min/kg. The “fu,plasma (h)” value [15] was 0.056.
